Reference: PubChem BioAssay (NCI)
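Cells were grown in 96-well plates and exposed to each compound for 48 hours at five concentrations; endpoints were interpolated linearly between bracketing concentrations, or set to the highest concentration if not reached. Here, GI50 denotes the concentration required for 50% inhibition of growth. TGI: concentration producing complete growth inhibition.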

What was measured:
Experiment in all cases: inhibition of tumour cell growth, NCI panel, 48 h
DU-145 prostate = system: DU-145 prostate
SNB-75 CNS = system: SNB-75 CNS
SNB-19 CNS = system: SNB-19 CNS
UO-31 renal = system: UO-31 renal
COLO 205 colon = system: COLO 205 colon
SN12C renal = system: SN12C renal
CAKI-1 renal = system: CAKI-1 renal
TK-10 renal = system: TK-10 renal
LOX IMVI melanoma = system: LOX IMVI melanoma
ACHN renal = system: ACHN renal
UACC-257 melanoma = system: UACC-257 melanoma
A549 NSCLC = system: A549 NSCLC
A498 renal = system: A498 renal
NCI-H226 lung = system: NCI-H226 lung
OVCAR-8 ovarian = system: OVCAR-8 ovarian
IGROV1 ovarian = system: IGROV1 ovarian
SK-OV-3 ovarian = system: SK-OV-3 ovarian
OVCAR-3 ovarian = system: OVCAR-3 ovarian
RXF 393 renal = system: RXF 393 renal
U251 CNS = system: U251 CNS
NCI-H460 lung = system: NCI-H460 lung
SW-620 colon = system: SW-620 colon
NCI-H522 lung = system: NCI-H522 lung
BT-549 breast = system: BT-549 breast
K-562 leukemia = system: K-562 leukemia
HT29 colon = system: HT29 colon
SK-MEL-5 melanoma = system: SK-MEL-5 melanoma
HCT-116 colon = system: HCT-116 colon
HCC-2998 colon = system: HCC-2998 colon
MCF7 breast = system: MCF7 breast
EKVX NSCLC = system: EKVX NSCLC
SF-295 CNS = system: SF-295 CNS
KM12 colon = system: KM12 colon
MALME-3M melanoma = system: MALME-3M melanoma
786-0 renal = system: 786-0 renal
CCRF-CEM leukemia = system: CCRF-CEM leukemia
SK-MEL-28 melanoma = system: SK-MEL-28 melanoma
MDA-MB-231 breast = system: MDA-MB-231 breast
MOLT-4 leukemia = system: MOLT-4 leukemia
HCT-15 colon = system: HCT-15 colon
SK-MEL-2 melanoma = system: SK-MEL-2 melanoma
RPMI-8226 leukemia = system: RPMI-8226 leukemia
HOP-62 NSCLC = system: HOP-62 NSCLC
PC-3 prostate = system: PC-3 prostate
MDA-MB-435 = system: MDA-MB-435
SF-268 CNS = system: SF-268 CNS
NCI/ADR-RES ovarian = system: NCI/ADR-RES ovarian
M14 melanoma = system: M14 melanoma
T-47D breast = system: T-47D breast
HS 578T breast = system: HS 578T breast
NCI-H23 lung = system: NCI-H23 lung
OVCAR-5 ovarian = system: OVCAR-5 ovarian
UACC-62 melanoma = system: UACC-62 melanoma
MDA-MB-468 breast = system: MDA-MB-468 breast
OVCAR-4 ovarian = system: OVCAR-4 ovarian
SF-539 CNS = system: SF-539 CNS
HOP-92 NSCLC = system: HOP-92 NSCLC
HL-60(TB) leukemia = system: HL-60(TB) leukemia

C/C(=N/O)c1ccc(NC(=O)CSc2nnc(-c3ccc4nc(-c5ccc(Cl)cc5)[nH]c4c3)o2)cc1 was tested. Which GI50 (DU-145 prostate) did it give?
The GI50 was 17.7 µM.

And the TGI (DU-145 prostate)?
Its TGI is 33.3 µM.

What about the GI50 (SNB-75 CNS) of the same compound?
Its GI50 is 5.87 µM.

And the TGI (SNB-75 CNS)?
The TGI was 22.8 µM.

And the GI50 (SNB-19 CNS)?
The GI50 was 12 µM.

And the TGI (SNB-19 CNS)?
The TGI was 25.7 µM.

What about the GI50 (UO-31 renal) of the same compound?
The GI50 was 24.8 µM.

What about the TGI (UO-31 renal) of the same compound?
The TGI was over 100 µM.

And the GI50 (COLO 205 colon)?
Its GI50 is 22.3 µM.

What about the TGI (COLO 205 colon) of the same compound?
The TGI was 66.1 µM.

What about the GI50 (SN12C renal) of the same compound?
Its GI50 is 4.04 µM.

What about the TGI (SN12C renal) of the same compound?
The TGI was 15.5 µM.

What about the GI50 (CAKI-1 renal) of the same compound?
Its GI50 is 12.3 µM.

And the TGI (CAKI-1 renal)?
The TGI was 28.5 µM.

And the GI50 (TK-10 renal)?
Its GI50 is 28.4 µM.

What about the TGI (TK-10 renal) of the same compound?
The TGI was 56.4 µM.

What about the GI50 (LOX IMVI melanoma) of the same compound?
The GI50 was 1.94 µM.

And the TGI (LOX IMVI melanoma)?
Its TGI is 4.05 µM.

What about the GI50 (ACHN renal) of the same compound?
Its GI50 is 15.8 µM.

And the TGI (ACHN renal)?
The TGI was 35 µM.

And the GI50 (UACC-257 melanoma)?
Its GI50 is 12.9 µM.

What about the TGI (UACC-257 melanoma) of the same compound?
The TGI was 29.8 µM.

And the GI50 (A549 NSCLC)?
The GI50 was 8.19 µM.

And the TGI (A549 NSCLC)?
Its TGI is 28.1 µM.

What about the GI50 (A498 renal) of the same compound?
The GI50 was 21.3 µM.

What about the TGI (A498 renal) of the same compound?
Its TGI is 37.1 µM.

And the GI50 (NCI-H226 lung)?
Its GI50 is 13.5 µM.

What about the TGI (NCI-H226 lung) of the same compound?
The TGI was 32.8 µM.

What about the GI50 (OVCAR-8 ovarian) of the same compound?
Its GI50 is 3.29 µM.

And the TGI (OVCAR-8 ovarian)?
The TGI was 15.1 µM.

And the GI50 (IGROV1 ovarian)?
The GI50 was 16.2 µM.

What about the TGI (IGROV1 ovarian) of the same compound?
Its TGI is 30.5 µM.

And the GI50 (SK-OV-3 ovarian)?
The GI50 was 20.4 µM.

What about the TGI (SK-OV-3 ovarian) of the same compound?
The TGI was 39.4 µM.

What about the GI50 (OVCAR-3 ovarian) of the same compound?
Its GI50 is 18.8 µM.

What about the TGI (OVCAR-3 ovarian) of the same compound?
The TGI was 38 µM.

And the GI50 (RXF 393 renal)?
Its GI50 is 2.38 µM.

And the TGI (RXF 393 renal)?
Its TGI is 8.16 µM.

And the GI50 (U251 CNS)?
Its GI50 is 3.03 µM.

And the TGI (U251 CNS)?
The TGI was 8.87 µM.

What about the GI50 (NCI-H460 lung) of the same compound?
Its GI50 is 12.7 µM.

What about the TGI (NCI-H460 lung) of the same compound?
Its TGI is 32.4 µM.

What about the GI50 (SW-620 colon) of the same compound?
The GI50 was 22 µM.

And the TGI (SW-620 colon)?
The TGI was 59.5 µM.

What about the GI50 (NCI-H522 lung) of the same compound?
Its GI50 is 3.48 µM.

What about the TGI (NCI-H522 lung) of the same compound?
The TGI was 17.2 µM.

What about the GI50 (BT-549 breast) of the same compound?
Its GI50 is 4.36 µM.

What about the TGI (BT-549 breast) of the same compound?
The TGI was 20.5 µM.

And the GI50 (K-562 leukemia)?
Its GI50 is 3.39 µM.

What about the TGI (K-562 leukemia) of the same compound?
Its TGI is over 100 µM.

What about the GI50 (HT29 colon) of the same compound?
The GI50 was 9.34 µM.

What about the TGI (HT29 colon) of the same compound?
Its TGI is 29.8 µM.

And the GI50 (SK-MEL-5 melanoma)?
The GI50 was 5.47 µM.

What about the TGI (SK-MEL-5 melanoma) of the same compound?
The TGI was 18.2 µM.

What about the GI50 (HCT-116 colon) of the same compound?
Its GI50 is 4.78 µM.

What about the TGI (HCT-116 colon) of the same compound?
Its TGI is 37.7 µM.

And the GI50 (HCC-2998 colon)?
Its GI50 is 43.2 µM.

And the TGI (HCC-2998 colon)?
The TGI was over 100 µM.

And the GI50 (MCF7 breast)?
Its GI50 is 6.65 µM.

And the TGI (MCF7 breast)?
The TGI was 26 µM.

And the GI50 (EKVX NSCLC)?
The GI50 was 18 µM.

And the TGI (EKVX NSCLC)?
The TGI was 45.1 µM.

And the GI50 (SF-295 CNS)?
Its GI50 is 12.9 µM.

And the TGI (SF-295 CNS)?
Its TGI is 28.9 µM.

And the GI50 (KM12 colon)?
The GI50 was 16.7 µM.

What about the TGI (KM12 colon) of the same compound?
Its TGI is 43 µM.

What about the GI50 (MALME-3M melanoma) of the same compound?
The GI50 was 1.93 µM.

What about the TGI (MALME-3M melanoma) of the same compound?
Its TGI is 4.86 µM.

And the GI50 (786-0 renal)?
The GI50 was 3.36 µM.

What about the TGI (786-0 renal) of the same compound?
The TGI was 11.8 µM.

What about the GI50 (CCRF-CEM leukemia) of the same compound?
The GI50 was 3.05 µM.

What about the TGI (CCRF-CEM leukemia) of the same compound?
Its TGI is over 100 µM.

What about the GI50 (SK-MEL-28 melanoma) of the same compound?
The GI50 was 2.23 µM.

What about the TGI (SK-MEL-28 melanoma) of the same compound?
Its TGI is 5.14 µM.

What about the GI50 (MDA-MB-231 breast) of the same compound?
The GI50 was 2.22 µM.

And the TGI (MDA-MB-231 breast)?
Its TGI is 5.35 µM.

What about the GI50 (MOLT-4 leukemia) of the same compound?
The GI50 was 3.66 µM.

And the TGI (MOLT-4 leukemia)?
The TGI was over 100 µM.

What about the GI50 (HCT-15 colon) of the same compound?
The GI50 was 56.9 µM.

And the TGI (HCT-15 colon)?
The TGI was over 100 µM.

And the GI50 (SK-MEL-2 melanoma)?
Its GI50 is 13.2 µM.

What about the TGI (SK-MEL-2 melanoma) of the same compound?
The TGI was 27.8 µM.

And the GI50 (RPMI-8226 leukemia)?
The GI50 was 13.6 µM.

What about the TGI (RPMI-8226 leukemia) of the same compound?
Its TGI is 71.5 µM.

What about the GI50 (HOP-62 NSCLC) of the same compound?
Its GI50 is 2.57 µM.

And the TGI (HOP-62 NSCLC)?
Its TGI is 8.69 µM.

What about the GI50 (PC-3 prostate) of the same compound?
The GI50 was 3.6 µM.

And the TGI (PC-3 prostate)?
The TGI was 16.3 µM.

What about the GI50 (MDA-MB-435) of the same compound?
The GI50 was 3.79 µM.

And the TGI (MDA-MB-435)?
Its TGI is 15 µM.

What about the GI50 (SF-268 CNS) of the same compound?
The GI50 was 12.7 µM.

What about the TGI (SF-268 CNS) of the same compound?
Its TGI is 30.5 µM.

What about the GI50 (NCI/ADR-RES ovarian) of the same compound?
The GI50 was over 100 µM.

And the TGI (NCI/ADR-RES ovarian)?
Its TGI is over 100 µM.

What about the GI50 (M14 melanoma) of the same compound?
Its GI50 is 3.38 µM.

What about the TGI (M14 melanoma) of the same compound?
Its TGI is 15 µM.

And the GI50 (T-47D breast)?
The GI50 was 17.3 µM.

What about the TGI (T-47D breast) of the same compound?
The TGI was 41.9 µM.

What about the GI50 (HS 578T breast) of the same compound?
The GI50 was 3.63 µM.

And the TGI (HS 578T breast)?
The TGI was 28.6 µM.

What about the GI50 (NCI-H23 lung) of the same compound?
The GI50 was 3.43 µM.

And the TGI (NCI-H23 lung)?
The TGI was 16.7 µM.

And the GI50 (OVCAR-5 ovarian)?
Its GI50 is 17.8 µM.

And the TGI (OVCAR-5 ovarian)?
The TGI was 36.1 µM.

And the GI50 (UACC-62 melanoma)?
The GI50 was 3.09 µM.

And the TGI (UACC-62 melanoma)?
The TGI was 11.1 µM.

And the GI50 (MDA-MB-468 breast)?
The GI50 was 18.5 µM.

And the TGI (MDA-MB-468 breast)?
The TGI was 33.7 µM.

And the GI50 (OVCAR-4 ovarian)?
Its GI50 is 18.7 µM.

And the TGI (OVCAR-4 ovarian)?
The TGI was 42 µM.

And the GI50 (SF-539 CNS)?
The GI50 was 10.2 µM.

And the TGI (SF-539 CNS)?
The TGI was 22.1 µM.

What about the GI50 (HOP-92 NSCLC) of the same compound?
Its GI50 is 3.12 µM.

And the TGI (HOP-92 NSCLC)?
The TGI was 9.48 µM.

What about the GI50 (HL-60(TB) leukemia) of the same compound?
Its GI50 is 13.8 µM.

What about the TGI (HL-60(TB) leukemia) of the same compound?
Its TGI is over 100 µM.
